Laboratory results published in PubChem BioAssay AID1745844 (Carcinogenic Potency Database (CPDB), 2022).
Calls of active or inactive are those of the source. The rule behind the calls is not given here. Peptide text beside a SMILES is read from it.

Tested on: rodent lifetime carcinogenesis bioassay, tumor incidence TD50
Assay: carcinogenic potency in animals, long-term in vivo studies, CPDB compilation (AID 1745844)

CC(=O)CN(N=O)C(=O)NCCCl
1.36 mg/kg/day: TD50 (rat, strain Fischer 344, females, by gavage, site: liver, lesion: one or several types, types not named, dosed 30 weeks, study length 104 weeks)
3.14 mg/kg/day: TD50 (rat, strain Fischer 344, males, by gavage, site: lung, lesion: one or several types, types not named, dosed 30 weeks, study length 104 weeks) | TD50 (rat, strain Fischer 344, males, in drinking water, site: liver, lesion: one or several types, types not named, dosed 30 weeks, study length 104 weeks) | TD50 (rat, strain Fischer 344, males, in drinking water, site: nervous system, lesion: one or several types, types not named, dosed 30 weeks, study length 104 weeks)
0.951 mg/kg/day: TD50 (rat, strain Fischer 344, males, by gavage, site: nervous system, lesion: one or several types, types not named, dosed 30 weeks, study length 104 weeks)
active: TD50 (hamster, strain Syrian Golden, females, by gavage, site: spleen, lesion: all vascular tumors, dosed 43 weeks, study length 75 weeks) 0.774 mg/kg/day | TD50 (hamster, strain Syrian Golden, males, by gavage, site: spleen, lesion: hemangiosarcoma, dosed 43 weeks, study length 75 weeks) 0.216 mg/kg/day
4.49 mg/kg/day: TD50 (rat, strain Fischer 344, females, by gavage, site: nervous system, lesion: one or several types, types not named, dosed 30 weeks, study length 104 weeks) | TD50 (rat, strain Fischer 344, females, in drinking water, site: lung, lesion: one or several types, types not named, dosed 30 weeks, study length 104 weeks) | TD50 (rat, strain Fischer 344, females, in drinking water, site: nervous system, lesion: one or several types, types not named, dosed 30 weeks, study length 104 weeks)
1.5 mg/kg/day: TD50 (rat, strain Fischer 344, males, in drinking water, site: lung, lesion: one or several types, types not named, dosed 30 weeks, study length 104 weeks)

Nc1ccc(NC(=O)c2ccc(N)cc2)cc1
inactive: carcinogen call (mouse, strain BALB/cLacDp, females, in feed, site: liver, lesion: several types, types named in the paper, dosed 60 weeks, study length 132 weeks) negative | TD50 (mouse, strain BALB/cLacDp, females, in feed, site: lung, lesion: several types, types named in the paper, dosed 60 weeks, study length 132 weeks) 360 mg/kg/day | carcinogen call (mouse, strain BALB/cLacDp, males, in feed, site: liver, lesion: several types, types named in the paper, dosed 60 weeks, study length 132 weeks) negative | carcinogen call (mouse, strain BALB/cLacDp, males, in feed, site: lung, lesion: several types, types named in the paper, dosed 60 weeks, study length 132 weeks) negative

COC(=O)C1=C(C)NC(C)=C(C(=O)OCCc2ccc(N3CCN(C(c4ccccc4)c4ccccc4)CC3)cc2)C1c1cccc([N+](=O)[O-])c1 (stereo not given)
inactive: TD50 (mouse, strain B6C3F1, females, in feed, site: any site (literature study), lesion: several types, types named in the paper, dosed 78 weeks, study length 78 weeks) 293 mg/kg/day | TD50 (mouse, strain B6C3F1, females, in feed, site: liver, lesion: hepatocellular adenoma, dosed 78 weeks, study length 78 weeks) 714 mg/kg/day | carcinogen call (mouse, strain B6C3F1, females, in feed, site: lung, lesion: adenocarcinoma, dosed 78 weeks, study length 78 weeks) negative | TD50 (mouse, strain B6C3F1, females, in feed, site: lung, lesion: alveolar/bronchiolar adenoma, dosed 78 weeks, study length 78 weeks) 243 mg/kg/day | carcinogen call (mouse, strain B6C3F1, males, in feed, site: any site (literature study), lesion: several types, types named in the paper, dosed 78 weeks, study length 78 weeks) negative | carcinogen call (mouse, strain B6C3F1, males, in feed, site: liver, lesion: hepatocellular adenoma, dosed 78 weeks, study length 78 weeks) negative | TD50 (mouse, strain B6C3F1, males, in feed, site: liver, lesion: hepatocellular carcinoma, dosed 78 weeks, study length 78 weeks) 898 mg/kg/day | carcinogen call (mouse, strain B6C3F1, males, in feed, site: lung, lesion: adenocarcinoma, dosed 78 weeks, study length 78 weeks) negative | carcinogen call (mouse, strain B6C3F1, males, in feed, site: lung, lesion: alveolar/bronchiolar adenoma, dosed 78 weeks, study length 78 weeks) negative | TD50 (rat, strain F344/DuCrj, females, in feed, site: any site (literature study), lesion: several types, types named in the paper, dosed 104 weeks, study length 104 weeks) 46.1 mg/kg/day | TD50 (rat, strain F344/DuCrj, females, in feed, site: liver, lesion: hepatocellular adenoma, dosed 104 weeks, study length 104 weeks) 509 mg/kg/day | carcinogen call (rat, strain F344/DuCrj, males, in feed, site: any site (literature study), lesion: several types, types named in the paper, dosed 104 weeks, study length 104 weeks) negative | carcinogen call (rat, strain F344/DuCrj, males, in feed, site: liver, lesion: hepatocellular adenoma, dosed 104 weeks, study length 104 weeks) negative

COC(=O)[C@H](Cc1ccccc1)NC(=O)[C@@H](N)CC(=O)O (H-Asp-Phe-OMe)
inactive: carcinogen call (rat, strain Charles River CD (Sprague-Dawley), females, in feed, site: any site (literature study), lesion: several types, types named in the paper, dosed 104 weeks, study length 104 weeks) negative | TD50 (rat, strain Charles River CD (Sprague-Dawley), females, in feed, site: brain, lesion: several types, types named in the paper, dosed 104 weeks, study length 104 weeks) 118000 mg/kg/day | carcinogen call (rat, strain Charles River CD (Sprague-Dawley), females, in feed, site: liver, lesion: hepatoma, benign, dosed 104 weeks, study length 104 weeks) negative | carcinogen call (rat, strain Charles River CD (Sprague-Dawley), males, in feed, site: any site (literature study), lesion: several types, types named in the paper, dosed 104 weeks, study length 104 weeks) negative | TD50 (rat, strain Charles River CD (Sprague-Dawley), males, in feed, site: brain, lesion: several types, types named in the paper, dosed 104 weeks, study length 104 weeks) 666000 mg/kg/day | TD50 (rat, strain Charles River CD (Sprague-Dawley), males, in feed, site: liver, lesion: hepatoma, benign, dosed 104 weeks, study length 104 weeks) 1.3e+06 mg/kg/day | carcinogen call (rat, strain Slc-Wistar, females, in feed, site: brain, lesion: several types, types named in the paper, dosed 104 weeks, study length 104 weeks) negative | TD50 (rat, strain Slc-Wistar, males, in feed, site: brain, lesion: several types, types named in the paper, dosed 104 weeks, study length 104 weeks) 186000 mg/kg/day

CC(=O)O[C@]1(C(C)=O)CC[C@H]2[C@@H]3C=C(Cl)C4=CC(=O)[C@@H]5C[C@@H]5[C@]4(C)[C@H]3CC[C@@]21C
active: TD50 (mouse, strain C57BL/10J, females, in feed, site: liver, lesion: hepatocellular carcinoma, dosed 97 weeks, study length 97 weeks) 254 mg/kg/day | TD50 (mouse, strain C57BL/10J, females, in feed, site: liver, lesion: several types, types named in the paper, dosed 97 weeks, study length 97 weeks) 254 mg/kg/day | TD50 (mouse, strain C57BL/10J, females, in feed, site: pylorus, lesion: adenomatous polyp, dosed 97 weeks, study length 97 weeks) 16.8 mg/kg/day | TD50 (mouse, strain C57BL/10J, males, in feed, site: liver, lesion: hepatocellular carcinoma, dosed 104 weeks, study length 104 weeks) 179 mg/kg/day | TD50 (mouse, strain C57BL/10J, males, in feed, site: liver, lesion: several types, types named in the paper, dosed 104 weeks, study length 104 weeks) 115 mg/kg/day | TD50 (mouse, strain C57BL/10J, males, in feed, site: pylorus, lesion: adenomatous polyp, dosed 104 weeks, study length 104 weeks) 31.6 mg/kg/day
1120 mg/kg/day: TD50 (mouse, strain C57BL/10J, females, in feed, site: liver, lesion: hepatocellular adenoma, dosed 97 weeks, study length 97 weeks)
333 mg/kg/day: TD50 (mouse, strain C57BL/10J, males, in feed, site: liver, lesion: hepatocellular adenoma, dosed 104 weeks, study length 104 weeks)

C#C[C@]1(O)CC[C@H]2[C@@H]3CCc4cc(OC)ccc4[C@H]3CC[C@@]21C
inactive: TD50 (mouse, strain CFLP, females, in feed, site: liver, lesion: hepatocellular tumor, dosed 78 weeks, study length 78 weeks) 6.27 mg/kg/day | TD50 (mouse, strain CFLP, males, in feed, site: liver, lesion: hepatocellular tumor, dosed 78 weeks, study length 78 weeks) 1.81 mg/kg/day

Cc1c(N(C)C)c(=O)n(-c2ccccc2)n1C
inactive: carcinogen call (mouse, strain B6C3F1, females, in drinking water, site: any site (literature study), lesion: one or several types, types not named, dosed 100 weeks, study length 104 weeks) negative | TD50 (mouse, strain B6C3F1, females, in drinking water, site: liver, lesion: hepatocellular adenoma, dosed 100 weeks, study length 104 weeks) 6150 mg/kg/day | carcinogen call (mouse, strain B6C3F1, females, in drinking water, site: liver, lesion: hepatocellular carcinoma, dosed 100 weeks, study length 104 weeks) negative | carcinogen call (mouse, strain B6C3F1, females, in drinking water, site: lung, lesion: alveolar/bronchiolar adenoma, dosed 100 weeks, study length 104 weeks) negative | TD50 (mouse, strain B6C3F1, females, in drinking water, site: lung, lesion: alveolar/bronchiolar carcinoma, dosed 100 weeks, study length 104 weeks) 6540 mg/kg/day | TD50 (mouse, strain B6C3F1, males, in drinking water, site: any site (literature study), lesion: one or several types, types not named, dosed 100 weeks, study length 104 weeks) 156 mg/kg/day | TD50 (mouse, strain B6C3F1, males, in drinking water, site: liver, lesion: hepatocellular adenoma, dosed 100 weeks, study length 104 weeks) 683 mg/kg/day | TD50 (mouse, strain B6C3F1, males, in drinking water, site: liver, lesion: hepatocellular carcinoma, dosed 100 weeks, study length 104 weeks) 5390 mg/kg/day | TD50 (mouse, strain B6C3F1, males, in drinking water, site: lung, lesion: alveolar/bronchiolar adenoma, dosed 100 weeks, study length 104 weeks) 1480 mg/kg/day | carcinogen call (mouse, strain B6C3F1, males, in drinking water, site: lung, lesion: alveolar/bronchiolar carcinoma, dosed 100 weeks, study length 104 weeks) negative

Cn1cc[nH]c1=S
active: TD50 (rat, strain Harlan, females, in feed, site: thyroid gland, lesion: follicular adenocarcinoma, dosed 104 weeks, study length 104 weeks) 9.47 mg/kg/day | TD50 (rat, strain Harlan, females, in feed, site: thyroid gland, lesion: follicular-cell adenoma, dosed 104 weeks, study length 104 weeks) 1.57 mg/kg/day | TD50 (rat, strain Harlan, males, in feed, site: thyroid gland, lesion: follicular adenocarcinoma, dosed 104 weeks, study length 104 weeks) 37.6 mg/kg/day | TD50 (rat, strain Harlan, males, in feed, site: thyroid gland, lesion: follicular-cell adenoma, dosed 104 weeks, study length 104 weeks) 0.9 mg/kg/day
